From paper PMC10947850 (Angewandte Chemie (International ed. in English), 2024)

System: Fub7
Assay: steady-state kinetics of aldehyde alkylation
Format: biochemical
Details: co-substrate O-acetyl-L-homoserine; native nucleophile; PLP enzyme

CCCCCC=O [n-hexanal]
Km: 11 mM
